Assay results taken from US7029652B2, “Method of treating tumors” (The Regents of the University of California, priority 1998, dated 2006).

Assays:
[1] = system: HBT 3477 tumors; assay: Microvessel density (CD31) in tumors; type: in vivo, mice
Protocol: (§1) Cellular immunopathology groups. Unless otherwise noted, groups consisted of 2 mice, each bearing 2 tumors, for a total of 4 tumors analyzed at each time point. […] The tumors were removed, cut in half, frozen in optimal cutting temperature (O.C.T). medium, and stored at about −70° C. until sectioning (10-μm sections). All time points were evaluated for apoptosis by terminal deoxynucleotidyl transferase-mediated dUTP nick end labeling (TUNEL, Cavrieli, et al. J. Cell Bio., 119: 493–501 (1992)) analysis, and selected time points (untreated, 1,5 and 6 days) were assessed for differences in proliferation rate (Ki67) and microvessel density (CD31).
(§2) Proliferation and microvessel density Analyses. 10-μm sections of tumors from untreated and mice treated with cRGD pentapeptide, RIT and CMRIT method and sacrificed at 1, 5 and 6 days after treatment were fixed for 10 minutes in ice-cold acetone, rinsed in PBS, and briefly incubated in methanol with 0.6% H2O2 (5 minutes). After rinsing in PBS, sections were blocked for 10 minutes with 10% goat serum and 1% bovine serum albumin in PBS. Mouse anti-Ki67 MAb (Pharmingen, clone B56) was applied in blocking solution (6.25 μg/ml) and the slides were incubated at room temperature for 2 hours, followed by rinsing in PBS. Goat anti-mouse rhodamine-labeled or goat anti-mouse Cy-3-labeled antibody was applied (Jackson ImmunoResearch Laboratories, Inc, West Grove, Pa., 1:100) and the slides were incubated for 1 hour at room temperature. After rinsing in PBS the sections were incubated for 1 hour at room temperature with rat anti-mouse CD31 antibody (Pharmingen, 1:100), followed by rinsing in PBS and a subsequent 1 hour incubation with goat anti-rat FITC-labeled antibody (Pharmingen, 1:50). After rinsing in PBS, the slides were counterstained with DAPI (0.4 μg/ml) and mounted in Biomeda gel mount (Fisher) under coverslips. Quantitation of Ki67 was performed using an Olympus microscope at X1000 magnification for assessment of proliferation. The mean total number of Ki67-positive cells/field in a tumor was determined by counts from 6 fields per tumor chosen randomly by DAPI stain. Microvessel density was determined by counting the number of CD31-stained vessels per random field at X400 magnification. Any endothelial cell or cell cluster positive for CD31, which was separate from an adjacent cluster, was counted as one microvessel. Six randomly chosen fields per tumor section were used to establish an average for each tumor. Average microvessel density for a treatment group was determined by averaging the values from 4 tumors/group.

[2] = system: HBT 3477 tumors; assay: Tumoricidal effect in HBT 3477 breast cancer xenografts; type: in vivo, mice
Protocol: Mice. Female athymic Balb/c nu/nu mice (7–10 week old; Harlan Sprague Dawley, Inc., Frederick, Md.) were maintained according to University of California animal care guidelines. HBT 3477 cells (3.0×10^6), harvested in log phase, were injected subcutaneously into one side of the abdomen for therapy studies (except where noted) and into both sides for immunopathology studies. Injection of RIT was by tail vein and cyclo-(Arg-Gly-Asp-D-Phe-[N-Me]-Val) was delivered by intraperitoneal (i.p.) injection. “Day 0” was designated as the time of RIT injection or, for first cRGD pentapeptide injection, for cRGD pentapeptide only group. Mice were sacrificed by cervical dislocation for immunopathology studies at the times indicated, when tumor burden exceeded allowed limits, or at 84 days for therapy studies.
Control (No RIT) Treatment groups.
High Dose RIT Treatment groups.
Low Dose RIT Treatment groups. […] These doses were given on day 0, 1 hour prior to RIT, followed by 5 more doses on days 2, 4, 6, 8, and 10 (30 mice, all with 1 tumor each).
Tumoricidal effect. Tumors were measured with calipers in 3 orthogonal diameters 3 times per week. Tumor volume was calculated using the formula for hemiellipsoids (DeNardo et al. Clin. Cancer Res., 3:71–79 (1997)). Initial tumor volume was defined as the volume on the day before treatment. Tumors that completely regressed were considered to have a volume of zero. […] For mice bearing two tumors with differing responses, tumor response was described according to both tumor responses. Mice dying prior to 30 days from toxicity were excluded from tumor response results.
(§3) Statistical Analysis. Statistical analysis of mortality data for RIT and CMRIT method treated mice was performed using a Fisher Exact test with StatExact software to determine if mortality was different. Statistical analysis of therapy data was done using a Cochran Mantel Haenszel test to evaluate effect of RIT dose on outcome for RIT and CMRIT method groups. Comparison of cure rates to all other responses for RIT vs. CMRIT method groups was done by Fisher Exact test, with the best tumor response used for 2-tumored animals for statistical purposes. Statistical differences between immunopathology groups at the different time points were assessed by analysis of variance (ANOVA) (Fisher PLSD) using STATview software as appropriate, with p<0.05 considered significant.

[3] = system: endothelial cells in HBT 3477 tumors; assay: TUNEL/CD31 analysis of endothelial apoptosis in tumors; type: in vivo, mice
Protocol: as §1
TUNEL analysis of total and endothelial apoptosis. […] Slides were rinsed, dipped briefly in 4,6-diamidino-2-phenylindole (DAPI, 0.2 μg/ml) for background nuclear stain, rinsed again and mounted, followed by storage in the dark at about 4° C. until quantitation.
Quantitation of total apoptosis and endothelial apoptosis. An Olympus microscope equipped with a Chroma Pinkle Filter Set (Chroma, Brattleboro, Vt.) with excitation filters for UV, FITC and rhodamine and dual/triple bandpass filters to allow simultaneous viewing of multiple wavelengths, was used to quantify 6 randomly chosen X600 fields (150,000 μm^2/field) in non-necrotic regions of each section. […]

[4] = system: HBT 3477 tumors; assay: Proliferation (Ki67) in tumors; type: in vivo, mice
Protocol: as §1, §2

[5] = system: αvβ3-expressing M21 melanoma cells; conditions: stated in words; cited from earlier work
[6] = system: HBT 3477 cells; assay: Attachment of HBT 3477 cells to vitronectin; type: cell-based, human; conditions: read-out: IC50 for blocking attachment of HBT 3477 cells to vitronectin
Description: Cell Lines. HBT 3477, a human breast adenocarcinoma cell line, was obtained from Bristol-Myers Squibb Pharmaceutical Research Institute (Seattle, Wash.). Greater than 70% of HBT 3477 cells stain intensely with L6. In HBT 3477 cells, bcl-2 is expressed and p53 is mutant, with a nonsense mutation in exon 10, resulting in a deletion in the region of the p53 protein that functions in tetramerization and in detection of double-stranded DNA breaks. HBT 3477 cells express functional αvβ5 integrin, but not αvβ3 integrin, as attachment to vitronectin is blocked by αvβ5-specific P1F6 antibody, but is not blocked by αvβ3-specific LM609 antibody.

[7] = system: HBT 3477 tumors; assay: TUNEL analysis of total cell apoptosis in tumors; type: in vivo, mice
Protocol: as §1
TUNEL analysis of total and endothelial apoptosis. Tumors were cut into 10-μm sections onto Fisher superplus slides (Fisher, Pittsburgh, Pa.), air-dried for 1 hour and frozen at about −70° C. until TUNEL analysis with ApopTag Red kit (rhodamine used as label, Intergen, Purchase, N.Y.) following the manufacturer's instructions subsequent to fixation for about 10 minutes in 1% paraformadehyde. After TUNEL, the slides were rinsed, and incubated overnight at 4° C. with a rat anti-mouse MAb against CD31 at 1:100 dilution (Pharmingen, San Diego, Calif.) to identify endothelial cells. Slides were rinsed and incubated for 1 hour with an anti-rat antibody linked to FITC (1:50 dilution) (Pharmingen). Slides were rinsed, dipped briefly in 4,6-diamidino-2-phenylindole (DAPI, 0.2 μg/ml) for background nuclear stain, rinsed again and mounted, followed by storage in the dark at about 4° C. until quantitation.
Quantitation of total apoptosis and endothelial apoptosis. An Olympus microscope equipped with a Chroma Pinkle Filter Set (Chroma, Brattleboro, Vt.) with excitation filters for UV, FITC and rhodamine and dual/triple bandpass filters to allow simultaneous viewing of multiple wavelengths, was used to quantify 6 randomly chosen X600 fields (150,000 μm^2/field) in non-necrotic regions of each section. Fields were chosen to cover the entire viewing area using DAPI label, which typically included about 300–350 cells. Total apoptosis was determined by the average number of positive nuclei per field for each tumor while endothelial apoptosis was determined using the same fields with a dual bandpass filter to count cells labeled by both FITC (CD31) and rhodamine (TUNEL). Fields were chosen from apparently non-necrotic areas of tumor sections, as HBT 3477 xenografts typically grow quickly in nude mice, doubling their volumes in 6 days, resulting in central necrosis of untreated tumors. As TUNEL may label necrotic cells, though less intensely, this strategy was chosen over a completely random process.

[8] = Toxicity: mortality, weights and blood counts; type: in vivo
Protocol: Toxicity. Weights and blood counts were measured 2–3 times per week for 12 weeks post-injection or until death. Blood samples were collected from tail veins using 2 μL microcapillary pipets. Samples from mice within a dose group were pooled, and diluted 1:200 in phosphate-buffered saline (PBS, 0.9% saline/10 mM sodium phosphate, pH 7.6) for red blood cell (RBC) counts; 1:100 in 1% (w/v) ammonium oxalate for platelet counts; or 1:20 in 3% (w/v) acetic acid for white blood cell (WBC) counts.
as §3

[9] = system: HBT 3477 cells; assay: HBT 3477 cell binding radioimmunoreactive assay (RIA); design: species or system human
Description: ^90Y-DOTA-peptide-ChL6. ChL6 was conjugated to 1,4,7,10-tetraazacyclododecane-N,N′,N″,N′″-tetraacetic acid (DOTA) and radiolabeled with ^90Y as described by DeNardo, et al. J. Nucl. Med., 36:829–836, with greater than or equal to 80 percent efficiency to prepare ^90Y-DOTA-peptide-ChL6. ^90Y-DOTA-peptide-ChL6 was examined for structural and functional integrity by molecular sieving high performance liquid chromatography (HPLC), cellulose acetate electrophoresis (CAE), and HBT 3477 cell binding radioimmunoreactive assay (RIA). […] Immunoreactive binding to live cells indicated greater than 92% reactivity; administration as a single dose of 200, 230 or 260 […] ^90Y-DOTA-peptide-ChL6.

[10] = system: HBT 3477 tumors; conditions: 250 μg provided 1 hour before RIT; cited from earlier work
[11] = Day 1, six fields per tumor at 400X
[12] = Day 1, six fields per tumor at 1000X
[13] = comparison as stated in the sentence
[14] = combined RIT 200–260 μCi, best response (parentheses)
[15] = combined RIT 200–260 μCi, worst response
[16] = high dose RIT 260 μCi, best response (parentheses)
[17] = high dose RIT 260 μCi, worst response
[18] = low dose RIT, best response (parentheses)

CC(C)[C@H]1C(=O)N[C@@H](CCCN=C(N)N)C(=O)NCC(=O)N[C@@H](CC(=O)O)C(=O)N[C@H](Cc2ccccc2)C(=O)N1C [cyclo-(Arg-Gly-Asp-D-Phe-[N-Me]-Val)]
Microvessel density, average number ± SE of CD31 positive regions [1, 11]: 12 ± 2 | Microvessel density, average number ± SE of CD31 positive regions ([1]; Day 5): 20 ± 4 | effect on tumor growth ([2]; 6×250 μg doses given every other day, in words): No apparent effect | cures ([2]; no RIT, 6 × 250 μg i.p.): 0% | CR complete regression (number of mice) ([2]; no RIT, worst response): 0 | NR no regression (number of mice) ([2]; no RIT, worst response): 18 | PR partial regression (number of mice) ([2]; no RIT, worst response): 0 | Cure (number of mice) ([2]; no RIT, worst response of 2-tumored mice, 84 days): no cures | Cure (number of mice) ([2]; no RIT, worst response of 2-tumored mice, 84 days, listed as cRGD pentapeptide): 0 | endothelial apoptosis ([3]; 1 day after treatment): 2.5±0.5 cells/field | endothelial apoptosis ([3]; 5 days after treatment): 2.4±0.7 cells/field | Proliferating cells, average no. of Ki67-positive cells [4, 12]: 14 ± 2 f | Proliferating cells, average no. of Ki67-positive cells ([4]; Day 5): 13 ± 1 f | IC50 for αvβ3-expressing M21 melanoma cells [5]: low micromolar range | IC50 [6]: ~5 µM | total cell apoptosis, percent of cells ([7]; 1 day after treatment): 4.6% | TUNEL-positive tumor and endothelial cells (total cells) ([7]; 1 day after treatment, X600, about 350 cells/field): 16.2±1.89 cells/field | mortality or toxicity, in words [8, 13]: No increased mortality or toxicity

^90Y-1,4,7,10-tetraazacyclododecane-N,N′,N″,N′″-tetraacetic acid-peptide-ChL6 [RIT]
Microvessel density, average number ± SE of CD31 positive regions [1, 11]: 15 ± 1 | Microvessel density, average number ± SE of CD31 positive regions ([1]; Day 5): 13 ± 1 | Microvessel density, average number ± SE of CD31 positive regions ([1]; Day 6): 9 ± 1 e | CR complete regression (number of mice) [2, 14]: 10 | Cure (number of mice) [2, 14]: 9 | NR no regression (number of mice) [2, 14]: 0 | PR partial regression (number of mice) [2, 14]: 27 | CR complete regression (number of mice) [2, 15]: 6 | NR no regression (number of mice) [2, 15]: 3 | PR partial regression (number of mice) [2, 15]: 29 | cure rate ([2]; combined low and high dose RIT): 20% | Cure (number of mice) ([2]; combined low and high dose RIT 200–260 μCi, worst response): 8 | Cure (number of mice) ([2]; high dose RIT 260 μCi (CMRIT + cRGD 250 μg × 6), worst response): 4 | CR complete regression (number of mice) [2, 16]: 6 | PR partial regression (number of mice) [2, 16]: 16 | CR complete regression (number of mice) [2, 17]: 2 | NR no regression (number of mice) [2, 17]: 0 | PR partial regression (number of mice) [2, 17]: 20 | cures ([2]; high dose RIT (260 μCi)): 15% | Cure (number of mice) ([2]; low dose RIT 200–230 μCi (CMRIT 200 μCi + cRGD 250 μg × 6), worst response): 4 | Cure (number of mice) ([2]; low dose RIT 200–230 μCi, best response (parentheses)): 5 | cures ([2]; low dose RIT (200–230 μCi)): 25% | NR no regression (number of mice) [2, 18]: 0 | PR partial regression (number of mice) [2, 18]: 11 | CR complete regression (number of mice) ([2]; low dose RIT, worst response): 4 | NR no regression (number of mice) ([2]; low dose RIT, worst response): 3 | PR partial regression (number of mice) ([2]; low dose RIT, worst response): 9 | Immunoreactive binding to live cells, reactivity [9]: greater than 92% | Proliferating cells, average no. of Ki67-positive cells [4, 12]: 18 ± 1 | Proliferating cells, average no. of Ki67-positive cells ([4]; Day 5): 13 ± 1 f | Proliferating cells, average no. of Ki67-positive cells ([4]; Day 6): 7 ± 1 | TUNEL-positive tumor and endothelial cells (total cells) ([7]; 6 days): 21.4±2.9 cells/field | total cell apoptosis, percent of cells ([7]; 6 days): 6.1% | weight, RBC, WBC and platelet counts, in words [8, 13]: decreased weight, RBC, WBC and platelet counts | mortality ([8]; high dose RIT (260 μCi)): 33% | mortality ([8]; low dose RIT (200–230 μCi)): 29%

cyclo-(Arg-Gly-Asp-D-Phe-1-aminocyclohexane carboxylic acid) [EMD 270179]
increased uptake of RIT by HBT 3477 tumors [10]: up to 50%
